# According to US20130072527A1, “METHODS OF USING SUSTAINED RELEASE AMINOPYRIDINE COMPOSITIONS” (Acorda Therapeutics, Inc., priority 2008, published 2013):
# Like-named read-outs stand apart in the source and are kept apart here.
# Assays:
# [1] = 14C-4-aminopyridine single oral dose in rats (HWI 6379-101); settings: for tissue-to-blood ratio: rat, oral dose; for AUC / Tmax / t1/2: rats, 1 mg/kg single oral
# Method: Studies were performed in rats and dogs using ^14C-labeled 4-aminopyridine (1 mg/kg) given as a single oral gavage dose in solution.
# In a single-dose study, rats were administered ^14C-labeled 4-aminopyridine (1 mg/kg) p.o. Three animals per time point were sacrificed 1, 3, 8, and 24 hours post-dose. Blood was collected and tissues were excised for determination of radioactivity.
# [2] = 14C-4-aminopyridine single oral dose in dogs (HWI 6379-102); assay type: in vivo; settings: for AUC / Tmax / t1/2: dogs, 1 mg/kg single oral
# Text: In both species, 14C 4-aminopyridine was rapidly absorbed.
# [3] = In situ absorption study (stomach, small intestine); assay type: in vivo
# Text: Absorption. 4-Aminopyridine is rapidly absorbed following oral administration.
# [4] = Single- and repeated-dose toxicity studies; assay type: in vivo; settings: orally administered; most often
# Method: Toxicology. In single- and repeated-dose toxicity studies, the dosing regimen greatly affected the rate of mortality and incidence of clinical signs in all species studied (with the possible exception of the mouse). In general, higher mortality rates and greater incidences of adverse clinical signs were noted when 4-aminopyridine was administered in a single large dose as compared to when the same total dose was given as two, three, or four equally divided sub-doses. Toxic responses to orally administered 4-aminopyridine were rapid in onset, most often occurring within the first 2 hours post-dose.
# These clinical signs were not unexpected and represent exaggerated pharmacology of 4-aminopyridine.
# [5] = tested on: patients with multiple sclerosis; assay: Phase 3 study MS-F204: Timed 25 Foot Walk (Timed Walk Response); assay type: in vivo, human
# [6] = tested on: patients with multiple sclerosis; assay: Phase 3 study MS-F204: leg strength (LEMMT); assay type: in vivo, human
# Text: (§1) The period of efficacy evaluation (visits 2-6) included 8 weeks of twice daily treatment. An additional week was incorporated to allow pharmacodynamic evaluation at Visit 7, which was not part of the primary endpoint. (See FIG. 1 for study design). In particular, this study is a double-blind, placebo-controlled, parallel group, 13-week study (one week post screening, two weeks of single-blind placebo run-in, eight weeks of double-blind treatment, and two weeks of follow-up) in patients with multiple sclerosis. […] One of the goals of this study is to confirm the primary outcome measure in a second prospective study, and equal randomization is the most efficient way to test this outcome. […] In order to ensure at least 184 patients complete the study, approximately 100 patients were randomized to each group.
# Secondary Outcome. The prospectively defined secondary outcome was leg strength, measured by Lower Extremity Manual Muscle Test (LEMMT) in 8 muscle groups, comparing the treated Timed Walk Responders and Timed Walk Non-Responders with placebo-treated patients.
# […] (p-values compared to placebo). […] (Analyzed by t-tests of the least-squares means using the mean square error via an ANOVA model with effects for responder analysis group and center.)
# [7] = tested on: patients with multiple sclerosis; assay: Phase 3 study MS-F204: other measures (MSWS-12, SGI, CGI, Ashworth score); assay type: in vivo, human
# Text: as §1
# Other measures. A number of other measures, not powered for statistical comparison, were included for integrated analyses across studies: MSWS-12, SGI, CGI, Ashworth score.
# Spasticity may be assessed in addition to walking speed and leg strength. When assessed, spasticity is evaluated at the screening visit and each subsequent visit using the Ashworth Spasticity Score. Preferably, the evaluation is prior to the LEMMT and includes evaluation of six lower extremity muscle groups; knee flexors, knee extensors and hip adductors on both the right and left side of the body. […]
# [8] = tested on: normal adult myelinated axons; settings: Shi and Blight, 1997, cited from earlier work
# [9] = tested on: chronically injured spinal cord; settings: (941 ng/mL); Shi et al., 1997; cited from earlier work
# [10] = Raoof et al., 1997, cited from earlier work
# [11] = Plasma protein binding of fampridine
# [12] = Single-dose pharmacokinetics in healthy volunteers; settings: administered orally
# [13] = Rat i.v. and p.o. pharmacokinetics 2 mg/kg (M 2001-03); settings: for Vdss: single p.o. dose 2 mg/kg; for bioavailability: rat, plasma, oral, 2 mg/kg
# [14] = Oral administration of non-sustained release 4-aminopyridine in animals
# [15] = one hour post-dose, 1 mg/kg p.o.
compound,measurement,setting,value
^14C-4-Aminopyridine,radioactive dose in the carcass,"[1]; 3 hours post-dose, 1 mg/kg p.o.",15.4%
same,tissue-to-blood ratio,[1]; cerebellum,1.48
same,tissue-to-blood ratio,[1]; cerebrum,3.07
same,dose accounted for in total (radioactivity),[1]; [15],58.3%
same,"radioactivity in blood, % of dose",[1]; [15],0.7%
same,"radioactivity in kidney, % of dose",[1]; [15],1.6%
same,"radioactivity in liver, % of dose",[1]; [15],2.6%
same,radioactivity in the carcass,[1]; [15],51%
same,AUC,[1]; females,506 ± 63.3 ng·h/mL
same,Tmax,[1]; females,0.5 h
same,t1/2,[1]; females,1.4 ± 0.17 h
same,AUC,[1]; males,498 ± 17.6 ng·h/mL
same,Tmax,[1]; males,1.0 h
same,t1/2,[1]; males,1.1 ± 0.04 h
same,AUC,[2]; females,1920 ± 150 ng·h/mL
same,Tmax,[2]; females,0.8 ± 0.3 h
same,t1/2,[2]; females,1.8 ± 0.04 h
same,AUC,[2]; males,2030 ± 406 ng·h/mL
same,Tmax,[2]; males,1.0 ± 0 h
same,t1/2,[2]; males,2.1 ± 0.14 h
same,Cmax and AUC in the dog relative to the rat,[2]; doses equal on a mg/kg basis (1 mg/kg oral),approximately four-fold higher
Nc1ccncc1 [4-aminopyridine],half-life,[3]; small intestine,0.67 h
same,half-life,[3]; stomach,1.81 h
same,elimination half-life,[1]; blood,1.21 h
same,elimination half-life,[1]; cerebellum,1.24 h
same,elimination half-life,[1]; cerebrum,1.63 h
same,onset of toxic responses post-dose,[4],≤ 2 h
same,Timed Walk response rate,"[5]; 10 mg b.i.d., with concomitant interferons, natalizumab, or glatiramer acetate (n=70)",42.9%
same,Timed Walk response rate,"[5]; 10 mg b.i.d., without concomitant immunomodulators (n=49)",42.9%
same,improvement in walking speed from baseline,"[5]; Timed Walk Responders, throughout the treatment period",approximately 25%
same,proportion of MS patients with consistently improved walking speed (Timed Walk Response),"[5]; eight weeks of treatment, 10 mg b.i.d.",42%
same,leg strength (LEMMT) versus placebo treated or Timed Walk Responder groups,[6]; Fampridine-treated Timed Walk Non-Responders,not significantly different
same,leg strength (LEMMT) versus placebo-treated patients,"[6]; Timed Walk Responders, p=0.028",significantly improved
same,"MSWS-12 score, SGI, and CGI",[7]; among Timed Walk Responders but not Timed Walk Non-Responders,improvement
same,Ashworth Score compared to the placebo treated group,[7]; significant in an unplanned analysis,improvement
same,concentration below which the action potential shows little or no sensitivity,[8]; (9.4 μg/mL),below 100 μM
same,concentration causing gradual depolarization of the axon resting potential,[8]; (94.1 μg/mL),above 1 mM
same,most effective concentration,[9],about 10 μM
same,"regional apparent permeability coefficient (papp×10^−6, cm/sec)",[10]; large intestine,2.9 ×10^−6 cm/sec
same,"regional apparent permeability coefficient (papp×10^−6, cm/sec)",[10]; upper small intestine,22.7 ×10^−6 cm/sec
same,fraction unbound,[11],0.97 to 0.99
same,absorption from the gastrointestinal tract,[12],completely absorbed
same,Vdss,[13]; female rats,947.5 mL
same,bioavailability,[13]; female,~55%
same,Vdss,[13]; male rats,1094.4 mL
same,bioavailability,[13]; male,~66.5%
same,Vdss difference between males and females adjusted for body weight,"[13]; rats, 2 mg/kg p.o.",2%
same,Vdss lower in females than in males,"[13]; rats, 2 mg/kg p.o., not statistically significant",13%
same,peak plasma concentrations lower in females than in males,"[13]; rats, oral administration",38%
same,time of peak plasma concentrations after dosing,[14],≤ 1 h
